# Results published in patent publication US20250129078A1, “ERBB2 INHIBITORS” (Cogent Biosciences, Inc., priority 2023, published 2025).
# Target: EGFR WT (Homo sapiens (Human), UniProt P00533)
# Test: ErbB enzyme assay (CisBio HTRF-KinEASE-TK), EGFR WT
# Type: biochemical
# Conditions: ATP at Km (25 μM), 1 h incubation
# Outline: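 Tyrosine kinase HTRF, 1 h RT reaction → quench (Sa-XL665/TK-Ab-Cryptate) → 1 h RT → 655/620 ratio.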
# Sequence of EGFR WT (P00533 25-1210): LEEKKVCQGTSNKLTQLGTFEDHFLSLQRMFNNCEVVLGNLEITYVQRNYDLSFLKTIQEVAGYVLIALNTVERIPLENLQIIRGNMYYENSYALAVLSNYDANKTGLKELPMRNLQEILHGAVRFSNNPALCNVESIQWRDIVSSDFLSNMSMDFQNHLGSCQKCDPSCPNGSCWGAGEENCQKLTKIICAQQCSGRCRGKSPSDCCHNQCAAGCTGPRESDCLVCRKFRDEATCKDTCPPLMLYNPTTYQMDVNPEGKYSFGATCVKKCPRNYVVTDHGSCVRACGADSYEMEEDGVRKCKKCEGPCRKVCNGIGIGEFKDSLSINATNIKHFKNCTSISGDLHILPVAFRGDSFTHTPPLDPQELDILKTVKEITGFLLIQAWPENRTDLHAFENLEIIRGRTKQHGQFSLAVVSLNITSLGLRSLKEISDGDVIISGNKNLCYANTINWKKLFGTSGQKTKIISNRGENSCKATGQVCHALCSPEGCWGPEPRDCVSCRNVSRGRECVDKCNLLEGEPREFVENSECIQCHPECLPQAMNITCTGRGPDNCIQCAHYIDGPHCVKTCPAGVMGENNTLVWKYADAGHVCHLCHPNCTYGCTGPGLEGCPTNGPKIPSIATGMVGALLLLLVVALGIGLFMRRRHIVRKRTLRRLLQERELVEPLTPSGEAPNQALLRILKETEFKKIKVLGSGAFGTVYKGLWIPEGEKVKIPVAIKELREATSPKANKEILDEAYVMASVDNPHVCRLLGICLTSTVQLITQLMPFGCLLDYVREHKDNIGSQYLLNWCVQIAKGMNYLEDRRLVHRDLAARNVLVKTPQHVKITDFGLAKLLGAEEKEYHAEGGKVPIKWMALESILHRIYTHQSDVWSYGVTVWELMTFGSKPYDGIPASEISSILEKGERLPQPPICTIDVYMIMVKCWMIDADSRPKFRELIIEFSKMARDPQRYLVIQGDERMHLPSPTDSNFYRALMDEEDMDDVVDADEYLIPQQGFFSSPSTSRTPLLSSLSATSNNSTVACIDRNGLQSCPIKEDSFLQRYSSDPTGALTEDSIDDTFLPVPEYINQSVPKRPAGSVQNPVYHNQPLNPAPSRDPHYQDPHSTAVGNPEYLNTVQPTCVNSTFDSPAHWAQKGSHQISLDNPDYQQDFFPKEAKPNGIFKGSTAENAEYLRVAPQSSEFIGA
row,IC50,SMILES
1,50 to 100 nM,"C=CC(=O)N1CCN(c2ncc3ncnc(Nc4ccc(Oc5cc(F)c6c(c5)ncn6C)c(C)c4)c3n2)C[C@H]1C [Compound 159, (R)-1-(4-(8-((4-((7-fluoro-1-methyl-1H-benzo[d]imidazol-5-yl)oxy)-3-methylphenyl)amino)pyrimido[5,4-d]pyrimidin-2-yl)-2-methylpiperazin-1-yl)prop-2-en-1-one]"
2,50 to 100 nM,"C=CC(=O)N1CCN(c2ncc3ncnc(Nc4ccc(Oc5cc(F)c6c(c5)nnn6C)c(C)c4)c3n2)C[C@H]1C [Compound 171, (R)-1-(4-(8-((4-((7-fluoro-1-methyl-1H-benzo[d][1,2,3]triazol-5-yl)oxy)-3-methylphenyl)amino)pyrimido[5,4-d]pyrimidin-2-y1)-2-methylpiperazin-1-yl)prop-2-en-1-one]"
3,100 to 500 nM,"C=CC(=O)N[C@@H]1CN(c2ccc3ncnc(Nc4ccc(Oc5ccc6c(c5)nnn6C)c(C)c4F)c3n2)CC[C@H]1C (single isomer, unassigned) [Compound 347]"
4,≥ 1000 nM,"C=CC(=O)N[C@@H]1CCCN(c2ccc3ncnc(Nc4cc(C)c(Oc5ccc6c(c5)nnn6C)cc4OC(F)F)c3n2)C1 [Compound 269, (R)-N-(1-(4-((2-(difluoromethoxy)-5-methyl-4-((1-methyl-1H-benzo[d][1,2,3]triazol-5-yl)oxy)phenyl)amino)pyrido[3,2-d]pyrimidin-6-yl)piperidin-3-yl)acrylamide]"
5,50 to 100 nM,"Cc1cc(Nc2ncnc3ccc(N4CC5CCC(C4)N5C(=O)/C=C/C(F)F)nc23)ccc1Oc1ccc2c(c1)nnn2C [Compound 358, (E)-4,4-difluoro-1-(3-(4-((3-methyl-4-((1-methyl-1H-benzo[d][1,2,3]triazol-5-yl)oxy)phenyl)amino)pyrido[3,2-d]pyrimidin-6-yl)-3,8-diazabicyclo[3.2.1]octan-8-yl)but-2-en-1-one]"
6,< 50 nM,"C=CC(=O)N1CCN(c2ccc3ncnc(Nc4ccc(Oc5cc(F)c6c(c5)nnn6C)c(C)c4)c3n2)CC1 [Compound 97, 1-(4-(4-((4-((7-fluoro-1-methyl-1H-benzo[d][1,2,3]triazol-5-yl)oxy)-3-methylphenyl)amino)pyrido[3,2-d]pyrimidin-6-yl)piperazin-1-yl)prop-2-en-1-one]"
7,100 to 500 nM,"C=CC(=O)N[C@@H]1CCCN(c2ncc3ncnc(Nc4ccc(Oc5ccc6c(c5)nnn6C)c(C)c4)c3n2)C1 [Compound 125, (R)-N-(1-(8-((3-methyl-4-((1-methyl-1H-benzo[d][1,2,3]triazol-5-yl)oxy)phenyl)amino)pyrimido [5,4-d]pyrimidin-2-y1)piperidin-3-yl)acrylamide]"
8,≥ 1000 nM,"C=CC(=O)N1CCN(c2ncc3ncnc(Nc4ccc(Oc5ccc6c(c5)nnn6C)cc4Cl)c3n2)CC1 [Compound 29, 1-(4-(8-((2-chloro-4-((1-methyl-1H-benzo[d][1,2,3]triazol-5-yl)oxy)phenyl)amino)pyrimido[5,4-d]pyrimidin-2-yl)piperazin-1-yl)prop-2-en-1-one]"
9,500 to 1000 nM,"C=CC(=O)N[C@@]1(C)CCCN(c2ncc3ncnc(Nc4ccc(Oc5ccc6c(c5)nnn6C)c(C)c4)c3n2)C1 [Compound 146, (S)-N-(3-methyl-1-(8-((3-methyl-4-((1-methyl-1H-benzo[d][1,2,3]triazol-5-yl)oxy)phenyl)amino)pyrimido[5,4-d]pyrimidin-2-yl)piperidin-3-yl)acrylamide]"
10,100 to 500 nM,"C=CC(=O)N[C@H]1CN(c2ccc3ncnc(Nc4ccc(Oc5ccc6c(c5)nnn6C)c(C)c4)c3n2)C[C@@H]1F [Compound 276, N-((3S,4S)-4-fluoro-1-(4-((3-methyl-4-((1-methyl-1H-benzo[d][1,2,3]triazol-5-yl)oxy)phenyl)amino)pyrido[3,2-d]pyrimidin-6-yl)pyrrolidin-3-yl)acrylamide]"
11,100 to 500 nM,"C=CC(=O)N1CCN(c2ccc3ncnc(Nc4ccc(Oc5ccc6c(c5)nnn6C)c(C)c4)c3n2)C[C@@H]1COC [Compound 78, (R)-1-(2-(methoxymethyl)-4-(4-((3-methyl-4-((1-methyl-1H-benzo[d][1,2,3]triazol-5-yl)oxy)phenyl)amino)pyrido[3,2-d]pyrimidin-6-yl)piperazin-1-yl)prop-2-en-1-one]"
12,100 to 500 nM,"C=CC(=O)N1CCN(c2ncc3ncnc(Nc4cc(C)c(Oc5cc(F)c6c(c5)ncn6C)cc4OC)c3n2)C[C@H]1C [Compound 41, (R)-1-(4-(8-((4-((7-fluoro-1-methyl-1H-benzo[d]imidazol-5-yl)oxy)-2-methoxy-5-methylphenyl)amino)pyrimido[5,4-d]pyrimidin-2-y1)-2-methylpiperazin-1-y1)prop-2-en-1-one]"
13,100 to 500 nM,"C=CC(=O)N1CCN(c2ccc3ncnc(Nc4ccc(Oc5cc6nnn(C)c6c(F)c5C)c(C)c4F)c3n2)C[C@H]1C [Compound 293, (R)-1-(4-(4-((2-fluoro-4-((7-fluoro-1,6-dimethyl-1H-benzo[d][1,2,3]triazol-5-yl)oxy)-3-methylphenyl)amino)pyrido[3,2-d]pyrimidin-6-yl)-2-methylpiperazin-1-yl)prop-2-en-1-one]"
14,< 50 nM,"C=CC(=O)N1CCC(Oc2ncc3ncnc(Nc4ccc(Oc5ccc6c(c5)ncn6C)c(C)c4)c3n2)C(F)(F)C1 (centres unmarked) [Compound 393, 1-(3,3-difluoro-4-((8-((3-methyl-4-((1-methyl-1H-benzo[d]imidazol-5-yl)oxy)phenyl)amino)pyrimido[5,4-d]pyrimidin-2-y1)oxy)piperidin-1-yl)prop-2-en-1-one]"
15,500 to 1000 nM,"C=CC(=O)N1CCN(c2ncc3ncnc(Nc4ccc(Oc5ccn6ncnc6c5)c(C)c4)c3c2F)CC1 [Compound 100, 1-(4-(4-((4-([1,2,4]triazolo[1,5-a]pyridin-7-yloxy)-3-methylphenyl)amino)-5-fluoropyrido[3,4-d]pyrimidin-6-yl)piperazin-1-yl)prop-2-en-1-one]"
16,100 to 500 nM,"C=CC(=O)N1CCN(c2ncc3ncnc(Nc4ccc(Oc5ccc6c(c5)nnn6C)c(C)c4)c3n2)C[C@H]1CO [Compound 24, (S)-1-(2-(hydroxymethyl)-4-(8-((3-methyl-4-((1-methyl-1H-benzo[d][1,2,3]triazol-5-yl)oxy)phenyl)amino)pyrimido[5,4-d]pyrimidin-2-yl)piperazin-1-yl)prop-2-en-1-one]"
17,500 to 1000 nM,"C=C(F)C(=O)N1CCN(c2ccc3ncnc(Nc4ccc(Oc5ccc6c(c5)nnn6C)c(C)c4)c3n2)C[C@@H]1CC#N [Compound 85, (S)-2-(1-(2-fluoroacryloyl)-4-(4-((3-methyl-4-((1-methyl-1H-benzo[d][1,2,3]triazol-5-yl)oxy)phenyl)amino)pyrido[3,2-d]pyrimidin-6-yl)piperazin-2-yl)acetonitrile]"
18,< 50 nM,"C=CC(=O)N1CCN(c2ncc3ncnc(Nc4ccc(Oc5ccc6c(c5)nnn6C)c(C)c4F)c3n2)CC12CC2 [Compound 8, 1-(7-(8-((2-fluoro-3-methyl-4-((1-methyl-1H-benzo[d][1,2,3]triazol-5-yl)oxy)phenyl)amino)pyrimido [5,4-d]pyrimidin-2-yl)-4,7-diazaspiro[2.5]octan-4-yl)prop-2-en-1-one]"
19,< 50 nM,"C=CC(=O)N1CC(Oc2ncc3ncnc(Nc4ccc(Oc5cc(F)c6c(c5)ncn6C)c(C)c4)c3n2)C1 [Compound 388, 1-(3-((8-((4-((7-fluoro-1-methyl-1H-benzo[d]imidazol-5-yl)oxy)-3-methylphenyl)amino)pyrimido[5,4-d]pyrimidin-2-yl)oxy)azetidin-1-yl)prop-2-en-1-one]"
20,≥ 1000 nM,"C=C(F)C(=O)N1CCN(c2ncc3ncnc(Nc4ccc(Oc5ccc6c(c5)nnn6C)c(C)c4)c3n2)C[C@@H]1COC [Compound 193, (R)-2-fluoro-1-(2-(methoxymethyl)-4-(8-((3-methyl-4-((1-methyl-1H-benzo[d][1,2,3]triazol-5-yl)oxy)phenyl)amino)pyrimido[5,4-d]pyrimidin-2-yl)piperazin-1-yl)prop-2-en-1-one]"
21,< 50 nM,"C=CC(=O)N[C@H]1CCN(c2ccc3ncnc(Nc4ccc(Oc5ccc6c(c5)nnn6C)c(C)c4F)c3n2)C[C@H]1F [Compound 281, N-((3R,4S)-3-fluoro-1-(4-((2-fluoro-3-methyl-4-((1-methyl-1H-benzo[d][1,2,3]triazol-5-yl)oxy)phenyl)amino)pyrido[3,2-d]pyrimidin-6-yl)piperidin-4-yl)acrylamide]"
22,< 50 nM,"C=CC(=O)N1CC[C@H](Oc2ncc3ncnc(Nc4ccc(Oc5cc(F)c6c(c5)ncn6C)c(C)c4)c3n2)C1 [Compound 389, (S)-1-(3-((8-((4-((7-fluoro-1-methyl-1H-benzo[d]imidazol-5-yl)oxy)-3-methylphenyl)amino)pyrimido[5,4-d]pyrimidin-2-yl)oxy)pyrrolidin-1-yl)prop-2-en-1-one]"
23,< 50 nM,"C=CC(=O)N1CCN(c2nc3c(Nc4ccc(Oc5cc(F)c6c(c5)nnn6C)c(C)c4F)ncnc3cc2OC)CC1 [Compound 99, 1-(4-(4-((2-fluoro-4-((7-fluoro-1-methyl-1H-benzo[d][1,2,3]triazol-5-yl)oxy)-3-methylphenyl)amino)-7-methoxypyrido[3,2-d]pyrimidin-6-yl)piperazin-1-yl)prop-2-en-1-one]"
24,100 to 500 nM,"C=CC(=O)N1CC[C@@H](Oc2ncc3ncnc(Nc4ccc(Oc5cc(F)c6c(c5)ncn6C)c(C)c4)c3n2)C1 [Compound 385, (R)-1-(3-((8-((4-((7-fluoro-1-methyl-1H-benzo[d]imidazol-5-yl)oxy)-3-methylphenyl)amino)pyrimido[5,4-d]pyrimidin-2-yl)oxy)pyrrolidin-1-yl)prop-2-en-1-one]"
25,500 to 1000 nM,"C=CC(=O)N[C@H]1CCCN(c2ccc3ncnc(Nc4ccc(Oc5ccc6c(c5)nnn6C)c(C)c4F)c3n2)CC1 [Compound 282, (S)-N-(1-(4-((2-fluoro-3-methyl-4-((1-methyl-1H-benzo[d][1,2,3]triazol-5-yl)oxy)phenyl)amino)pyrido[3,2-d]pyrimidin-6-yl)azepan-4-yl)acrylamide]"
26,≥ 1000 nM,"C=CC(=O)N[C@@H]1CCCN(c2ccc3ncnc(Nc4ccc(Oc5ccc6c(c5)nnn6C)c(C)c4F)c3n2)CC1 [Compound 283, (R)-N-(1-(4-((2-fluoro-3-methyl-4-((1-methyl-1H-benzo[d][1,2,3]triazol-5-yl)oxy)phenyl)amino)pyrido[3,2-d]pyrimidin-6-yl)azepan-4-yl)acrylamide]"
